# Source: US8216580B2, “Sulfatases and methods of use thereof” (The Regents of the University of California, priority 2000, dated 2012)
# How the values were obtained:
# [1] = tested on: Wnt signaling; assay: TCF-luciferase (TOPFlash/FOPFlash) Wnt reporter assay in pancreatic adenocarcinoma cell lines; type: cell-based, human; conditions: for Wnt activity: 16 hours with conditioned medium of HEK 293 clones
# Procedure: Cells were plated in 24 well plates and transfected with either 0.3 μg TOPFlash or FOPFlash and 0.01 μg Renilla control plasmid (Promega) using Fugene (Roche) according to the manufacturer's procedure. After 48 hours cells were lysed and analyzed utilizing the Dual Luciferase Reporter Assay system (Promega). Luciferase activity was normalized to control Renilla activity.
# To search for evidence that endogenous expressed sulfatases in pancreatic adenocarcinoma cell lines regulate Wnt signaling, the method of gene silencing was used. An antisense cDNA against both sulfatases was transiently transfected into four different cell lines. As a control, cells were transfected with a MMP-9 antisense cDNA. Wnt signaling was quantified by TCF-luciferase activity.
# HSulf-1 DCC and HSulf-2 DCC mutants are as follows: 1) cysteines 87 and 88 of HSulf-1 (designated as HSulf-1 ΔCC or HSulf-1 DCC) were changed to alanines; and cysteines 88 and 89 of HSulf-2 (designated as HSulf-2 ΔCC or HSulf-2 DCC) were changed to alanines (see Example 9, above).
# The effect of conditioned medium derived from the HEK 293 cell lines on Wnt signaling was determined. Pancreatic adenocarcinoma cells were incubated for 16 hours with conditioned medium derived from the described HEK 293 clones; and the TOP/FOPflash system was used to quantify Wnt signaling.
# In order to compare proliferation of BxPC3 sil413 cells and mock transfected BxPC3 cells in vitro, GFP+ (HSulf-2 positive) and GFP− (HSulf-2 negative) cells were co-cultured; and the ratio of GFP+ to GFP− cells was followed over time. […] Additionally, using sorted BxPC3 si1413 cells we examined proliferation performing BrdU incorporation experiments (FIG. 21D).
# [2] = tested on: pancreatic adenocarcinoma cell lines; assay: Transwell co-culture proliferation (cell counts) with HEK 293 feeder layer; type: cell-based, human; conditions: exogenous protein from 293 feeder layer
# Procedure: Co-culture experiments were performed in transwell plates with 24-well inserts with 5 μm polycarbonate membrane pore size (Corning Incorporated). HEK 293 cells were plated in the wells as feeder layer and one day later 1-2×10^3 cells of the pancreatic adenocarcinoma cell lines were plated in the inserts. Cells were grown in DMEM supplemented with 10% fetal calf serum.
# 293 cells expressing either HSulf-2, HSulf-2-DCC, parental 293 or only medium alone were used as feeder layer; and pancreatic adenocarcinoma lines were grown on transwell filters. Subsequently, cell counts were followed over time.
substance,measurement,setting,value
"HSulf-2 ΔCC: catalytically inactive HSulf-2, cysteines 88 and 89 mutated to alanines (CC88, 89AA)",Wnt activity,[1]; CFPAC-1 cells,did no respond
same,Wnt activity,[1]; cell lines inhibited in proliferation,significant decrease
same,inhibition of Wnt signaling (TCF-luciferase activity),"[1]; transient transfection, in three of the four examined pancreatic adenocarcinoma cell lines",about 50%
same,proliferation (cell counts over time),"[2]; BxPC-3, HS766T and L3.6sl cells",inhibited
same,proliferation (cell counts over time),[2]; CFPAC-1 cells,did not show any response
